The results in this text go back to US20040126359A1, “Hedgehog” (priority 2001, published 2004).

The test system of one test is CD4+ T-cells. The test is described as follows: Taqman real time PCR of Shh, Ihh, HIP and Ptc expression in CD4+ T-cells (FIGS. 14, 15, 17). Type of test: cell-based. The note with it: for Hip expression / Shh expression: activated T-cells, IFNγ; for Shh expression / production by activated T-cells: cytokine added. Here is the method:
Expression in medium, in the presence of 50 ng/ml IL-10 and in the presence of 50 ng/ml IFN-γ was compared to expression in resting CD4+ T-cells;
Similar experiments were used to study the expression of Shh (FIG. 4) and Ptc (FIG. 5) in T-cells and the expression of components of the Hh signalling pathway in lymphoid tissues (FIG. 6). FIG. 14 illustrates the results of an RT-PCR analysis of Shh, Ihh, Hip and Ptc expression. Activation of T-cells induced a sustained and marked (approximately 80-fold) increase in Shh mRNA, peaking at 44 and 72 hours. It lead to a downregulation of Ptc.
On the technique in general: Quantitative PCR measures a nucleic acid by following its amplification.

Test [1] has as its target endogenous Shh produced by activated mouse CD4+ T-cells (mouse) (UniProt Q62226). The test is described as follows: cell-based or functional assay.

Chain of endogenous Shh produced by activated mouse CD4+ T-cells (mouse) (Q62226 25-198 limits assumed): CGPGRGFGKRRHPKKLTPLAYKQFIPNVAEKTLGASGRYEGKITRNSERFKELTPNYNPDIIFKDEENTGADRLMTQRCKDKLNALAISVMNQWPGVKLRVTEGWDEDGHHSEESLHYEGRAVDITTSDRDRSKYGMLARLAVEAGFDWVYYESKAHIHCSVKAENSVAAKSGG

For the molecule IFNγ: cytokine interferon gamma, the Hip expression result with CD4+ T-cells (24 and 48 hours) was “upreguated”; with CD4+ T-cells (72 hours), “downregulted”. The Shh expression result with CD4+ T-cells (24 hours) is recorded as “downregulation”; in the test with CD4+ T-cells (48 hours), “upregulation”. Moreover, the “Shh expression / production by activated T-cells” value (shortened to “Shh expression / production”) in the test with CD4+ T-cells was “downregulation”.
In the case of TGF-β, in the test on CD4+ T-cells, the “Shh expression / production” value was “down-regulate”.
In test [1], neutralising anti-Shh antibody 5E1 gave a % decrease in the proportion of CD4+ T-cells in S/G2 with anti-Shh antibody (50 µg/ml), cell cycle analysis of 66.2 to 81.6%; a % decrease in the proportion of CD4+ T-cells in S/G2 with anti-Shh antibody (50 µg/ml), cell cycle analysis, mean of 73.4%; a decrease in proliferation of sub-optimally activated CD4+ T-cells with 50 µg/ml anti-Shh antibody (3H-TdR incorporation) of 71.3 to 85.1%.

B1: IL-10: immunosuppressive cytokine, interleukin (protein, UniProt P22301 19-178, looked up)
Interleukin-10: SPGQGTQSENSCTHFPGNLPNMLRDLRDAFSRVKTFFQMKDQLDNLLLKESLLEDFKGYLGCQALSEMIQFYLEEVMPQAENQDPDIKAHVNSLGENLKTLRLRLRRCHRFLPCENKSKAVEQVKNAFNKLQEKGIYKAMSEFDIFINYIEAYMTMKIRN
On to B1, for which the “Shh expression / production” value in the test with CD4+ T-cells was “down-regulate”.
